Experimental data taken from PubChem BioAssay (NCI).
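Grown in 96-well plates, cells were treated for 48 hours with each compound at five concentrations. Insufficient inhibition: endpoint recorded as highest concentration tested. GI50 marks 50% less growth. At the TGI there is no net growth.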

Assays:
Assay in all cases: NCI tumour cell line growth inhibition, 48 h
786-0 renal = test system: 786-0 renal
A498 renal = test system: A498 renal
A549 NSCLC = test system: A549 NSCLC
ACHN renal = test system: ACHN renal
BT-549 breast = test system: BT-549 breast
CAKI-1 renal = test system: CAKI-1 renal
CCRF-CEM leukemia = test system: CCRF-CEM leukemia
COLO 205 colon = test system: COLO 205 colon
DU-145 prostate = test system: DU-145 prostate
EKVX NSCLC = test system: EKVX NSCLC
HCC-2998 colon = test system: HCC-2998 colon
HCT-116 colon = test system: HCT-116 colon
HCT-15 colon = test system: HCT-15 colon
HL-60(TB) leukemia = test system: HL-60(TB) leukemia
HOP-62 NSCLC = test system: HOP-62 NSCLC
HOP-92 NSCLC = test system: HOP-92 NSCLC
HS 578T breast = test system: HS 578T breast
HT29 colon = test system: HT29 colon
IGROV1 ovarian = test system: IGROV1 ovarian
K-562 leukemia = test system: K-562 leukemia
KM12 colon = test system: KM12 colon
LOX IMVI melanoma = test system: LOX IMVI melanoma
M14 melanoma = test system: M14 melanoma
MALME-3M melanoma = test system: MALME-3M melanoma
MCF7 breast = test system: MCF7 breast
MDA-MB-231 breast = test system: MDA-MB-231 breast
MDA-MB-435 = test system: MDA-MB-435
MOLT-4 leukemia = test system: MOLT-4 leukemia
NCI-H226 lung = test system: NCI-H226 lung
NCI-H23 lung = test system: NCI-H23 lung
NCI-H460 lung = test system: NCI-H460 lung
NCI-H522 lung = test system: NCI-H522 lung
NCI/ADR-RES ovarian = test system: NCI/ADR-RES ovarian
OVCAR-3 ovarian = test system: OVCAR-3 ovarian
OVCAR-4 ovarian = test system: OVCAR-4 ovarian
OVCAR-5 ovarian = test system: OVCAR-5 ovarian
OVCAR-8 ovarian = test system: OVCAR-8 ovarian
PC-3 prostate = test system: PC-3 prostate
RPMI-8226 leukemia = test system: RPMI-8226 leukemia
RXF 393 renal = test system: RXF 393 renal
SF-268 CNS = test system: SF-268 CNS
SF-295 CNS = test system: SF-295 CNS
SF-539 CNS = test system: SF-539 CNS
SK-MEL-2 melanoma = test system: SK-MEL-2 melanoma
SK-MEL-28 melanoma = test system: SK-MEL-28 melanoma
SK-MEL-5 melanoma = test system: SK-MEL-5 melanoma
SK-OV-3 ovarian = test system: SK-OV-3 ovarian
SN12C renal = test system: SN12C renal
SNB-19 CNS = test system: SNB-19 CNS
SNB-75 CNS = test system: SNB-75 CNS
SR leukemia = test system: SR leukemia
SW-620 colon = test system: SW-620 colon
T-47D breast = test system: T-47D breast
TK-10 renal = test system: TK-10 renal
U251 CNS = test system: U251 CNS
UACC-257 melanoma = test system: UACC-257 melanoma
UACC-62 melanoma = test system: UACC-62 melanoma
UO-31 renal = test system: UO-31 renal

CN(c1ccc(F)cc1)S(=O)(=O)c1ccc(-c2cnc(C3CC3)o2)cc1
GI50 (786-0 renal): 108 nM | TGI (786-0 renal): > 41700 nM | GI50 (A498 renal): 43 nM | TGI (A498 renal): 493 nM | GI50 (A549 NSCLC): 180 nM | TGI (A549 NSCLC): > 100000 nM | GI50 (ACHN renal): 274 nM | TGI (ACHN renal): > 73100 nM | GI50 (BT-549 breast): 410 nM | TGI (BT-549 breast): 14100 nM | GI50 (CAKI-1 renal): 73.3 nM | TGI (CAKI-1 renal): > 100000 nM | GI50 (CCRF-CEM leukemia): 51.8 nM | TGI (CCRF-CEM leukemia): > 100000 nM | GI50 (COLO 205 colon): 98.8 nM | TGI (COLO 205 colon): 2400 nM | GI50 (DU-145 prostate): 279 nM | TGI (DU-145 prostate): > 76700 nM | GI50 (EKVX NSCLC): 289 nM | TGI (EKVX NSCLC): > 100000 nM | GI50 (HCC-2998 colon): 375 nM | TGI (HCC-2998 colon): > 50100 nM | GI50 (HCT-116 colon): 41.3 nM | GI50 (HCT-15 colon): 49.9 nM | TGI (HCT-15 colon): > 50000 nM | GI50 (HL-60(TB) leukemia): 28.8 nM | TGI (HL-60(TB) leukemia): 306 nM | GI50 (HOP-62 NSCLC): 145 nM | TGI (HOP-62 NSCLC): > 100000 nM | GI50 (HOP-92 NSCLC): 1210 nM | TGI (HOP-92 NSCLC): 11300 nM | GI50 (HS 578T breast): 176 nM | TGI (HS 578T breast): > 100000 nM | GI50 (HT29 colon): 44.3 nM | TGI (HT29 colon): 14600 nM | GI50 (IGROV1 ovarian): 66 nM | TGI (IGROV1 ovarian): > 100000 nM | GI50 (K-562 leukemia): 39.5 nM | TGI (K-562 leukemia): > 43800 nM | GI50 (KM12 colon): 54.5 nM | TGI (KM12 colon): 32200 nM | GI50 (LOX IMVI melanoma): 69 nM | TGI (LOX IMVI melanoma): 14100 nM | GI50 (M14 melanoma): 52 nM | TGI (M14 melanoma): 19800 nM | GI50 (MALME-3M melanoma): 11600 nM | TGI (MALME-3M melanoma): 47600 nM | GI50 (MCF7 breast): 39.6 nM | TGI (MCF7 breast): 50900 nM | GI50 (MDA-MB-231 breast): 404 nM | TGI (MDA-MB-231 breast): > 39000 nM | GI50 (MDA-MB-435): 28.4 nM | TGI (MDA-MB-435): 94.8 nM | GI50 (MOLT-4 leukemia): 80.6 nM | TGI (MOLT-4 leukemia): > 37500 nM | GI50 (NCI-H226 lung): 239 nM | TGI (NCI-H226 lung): 30800 nM | GI50 (NCI-H23 lung): 358 nM | TGI (NCI-H23 lung): > 100000 nM | GI50 (NCI-H460 lung): 46.9 nM | TGI (NCI-H460 lung): 13300 nM | GI50 (NCI-H522 lung): 78.9 nM | TGI (NCI-H522 lung): 1700 nM | GI50 (NCI/ADR-RES ovarian): 57.4 nM | TGI (NCI/ADR-RES ovarian): 21400 nM | GI50 (OVCAR-3 ovarian): 41.5 nM | TGI (OVCAR-3 ovarian): 15800 nM | GI50 (OVCAR-4 ovarian): 772 nM | TGI (OVCAR-4 ovarian): > 100000 nM | GI50 (OVCAR-5 ovarian): 495 nM | TGI (OVCAR-5 ovarian): > 100000 nM | GI50 (OVCAR-8 ovarian): 553 nM | TGI (OVCAR-8 ovarian): > 100000 nM | GI50 (PC-3 prostate): 136 nM | TGI (PC-3 prostate): > 67800 nM | GI50 (RPMI-8226 leukemia): 60.6 nM | TGI (RPMI-8226 leukemia): 2510 nM | GI50 (RXF 393 renal): 69.8 nM | TGI (RXF 393 renal): 366 nM | GI50 (SF-268 CNS): 1120 nM | TGI (SF-268 CNS): > 100000 nM | GI50 (SF-295 CNS): 52 nM | TGI (SF-295 CNS): 25100 nM | GI50 (SF-539 CNS): 71.8 nM | TGI (SF-539 CNS): 1870 nM | GI50 (SK-MEL-2 melanoma): 3740 nM | TGI (SK-MEL-2 melanoma): 40900 nM | GI50 (SK-MEL-28 melanoma): 2600 nM | TGI (SK-MEL-28 melanoma): > 100000 nM | GI50 (SK-MEL-5 melanoma): 84.2 nM | TGI (SK-MEL-5 melanoma): 5920 nM | GI50 (SK-OV-3 ovarian): 2520 nM | TGI (SK-OV-3 ovarian): > 94600 nM | GI50 (SN12C renal): 887 nM | TGI (SN12C renal): 39100 nM | GI50 (SNB-19 CNS): 102 nM | TGI (SNB-19 CNS): > 100000 nM | GI50 (SNB-75 CNS): 12.4 nM | TGI (SNB-75 CNS): 25800 nM | GI50 (SR leukemia): 31.5 nM | GI50 (SW-620 colon): 66.4 nM | TGI (SW-620 colon): > 100000 nM | GI50 (T-47D breast): 75.9 nM | TGI (T-47D breast): 71300 nM | GI50 (TK-10 renal): 26400 nM | TGI (TK-10 renal): > 100000 nM | GI50 (U251 CNS): 69.4 nM | TGI (U251 CNS): > 39100 nM | GI50 (UACC-257 melanoma): 11100 nM | TGI (UACC-257 melanoma): 52600 nM | GI50 (UACC-62 melanoma): 48.1 nM | TGI (UACC-62 melanoma): 19500 nM | GI50 (UO-31 renal): 766 nM | TGI (UO-31 renal): > 94100 nM
